Structures can show the parent of a compound that is named as a salt.

This note sets out measurements from patent US6579899B1, “Composition for treatment of stress” (Massachusetts Institute of Technology, priority 1998, dated 2003).

Type in all cases: in vivo, human
Assay [1] has as its system obese, stressed patients. The experiment in a line: questionnaire rating tendency to eat in response to emotional and stressful triggers. Also noted: Emotional Triggers: scale not given here. An excerpt:
(§1) A subgroup of obese individuals is identified, which individuals describe themselves as being unable to control their eating and who attempt to continue on a weight-reducing diet when experiencing emotional distress. […]
(§2) Objective measurements of emotional distress are made in some patients using the CES-D (Center for […] Depression Form) test, which measures current levels of emotional distress (Radloff, et al., The CES-D Scale: A Self Report Depression Scale for Research in the General Population Applied Psychological Measurement 1: 385-401, 1977); and the POMS (Profile of Mood States test, that assesses tension, depression, anger and confusion (McNair, et al., Profile of Mood States Manual;San Diego: Educational and Industrial Testing Service, 1971); both of these references are hereby incorporated by reference in their entirety. These tests are also given monthly during the treatment period. At the same time, patients also complete questionnaires that ask the patients to rate their appetite and hunger, and also to rate their tendency to eat in response to a variety of emotional and stressful triggers. The patients are also weighed monthly.

The test system of assay [2] is obese, stressed patients. The experiment in a line: CES-D test of current levels of emotional distress in patients.
From the text: as §1, §2

Assay [3] can be described thus: body weight in four month weight loss program.
From the text: as §1, §2

The subject of assay [4] is obese, stressed patients. Put plainly: questionnaire rating appetite and hunger. Also noted: Appetite and Cravings: scale not given here.
From the text: as §1, §2

The mark [5] stands for this setting: patient seven, 45 then 60 mg/day, Month 1, baseline 20.
The mark [6] stands for this setting: patient seven, 45 then 60 mg/day, Month 2, baseline 20.
Where [7] appears, read: patient seven, 45 then 60 mg/day, Month 3, baseline 20.
The mark [8] stands for this setting: patient seven, 45 then 60 mg/day, Month 4, baseline 20.

For `O=C([O-])[O-].[Li+].[Li+]` [lithium carbonate], the “Emotional Triggers” value in assay [1] (patient one, 900 mg/day, Month 1, baseline 15) came out at 16; in assay [1] (patient one, 900 mg/day, Month 2, baseline 15), 10; in assay [1] (patient one, 900 mg/day, Month 3, baseline 15) it was 6; in assay [1] (patient one, 900 mg/day, Month 4, baseline 15), 7. Also, the “Mood Scores CES-D” value in assay [2] (patient one, 900 mg/day, Month 1, baseline 4) stood at 3; in assay [2] (patient one, 900 mg/day, Month 2, baseline 4), 3; in assay [2] (patient one, 900 mg/day, Month 3, baseline 4), 2; in assay [2] (patient one, 900 mg/day, Month 4, baseline 4) it was 2. The “weight after 4 months” value is on record as 102.3 kg in assay [3] (patient one, 900 mg/day, starting weight 111.8 kg) and 225 pounds in assay [3] (patient one, 900 mg/day, starting weight 246 pounds). The “Appetite and Cravings” value in assay [4] (patient one, 900 mg/day, Month 1, baseline 14) came to 6; in assay [4] (patient one, 900 mg/day, Month 2, baseline 14), 9; in assay [4] (patient one, 900 mg/day, Month 3, baseline 14), 5; in assay [4] (patient one, 900 mg/day, Month 4, baseline 14) it was 3.

Consider `NNCCc1ccccc1` [phenelzine sulfate], for which the “Emotional Triggers” value in assay [1] (setting [5]) turned out to be 8; in assay [1] (setting [6]), 13; in assay [1] (setting [7]) it was 6; in assay [1] (setting [8]) it was 7. Moreover, the “Mood Scores CES-D” value in assay [2] (setting [5]) turned out to be 22; in assay [2] (setting [6]), 20; in assay [2] (setting [7]), 15; in assay [2] (setting [8]), 14. Also, the “weight at the end of 4 months” value came to 79.1 kg in assay [3] (patient seven, 45 then 60 mg/day, starting weight 83.6 kg) and 174 pounds in assay [3] (patient seven, 45 then 60 mg/day, starting weight 184 pounds). In addition, the “Appetite and Cravings” value in assay [4] (patient seven, 45 then 60 mg/day, Month 1, baseline 19) is listed as 15; in assay [4] (patient seven, 45 then 60 mg/day, Month 2, baseline 19) it was 8; in assay [4] (patient seven, 45 then 60 mg/day, Month 3, baseline 19) it was 13; in assay [4] (patient seven, 45 then 60 mg/day, Month 4, baseline 19), 12.

`CC(CN(C)C)CN1c2ccccc2CCc2ccccc21` (centres unmarked) [trimipramine maleate]: the “Emotional Triggers” value in assay [1] (patient eight, 75 then 100 mg/day, Month 1, baseline 14) came to 8; in assay [1] (patient eight, 75 then 100 mg/day, Month 2, baseline 14), 13; in assay [1] (patient eight, 75 then 100 mg/day, Month 3, baseline 14), 6; in assay [1] (patient eight, 75 then 100 mg/day, Month 4, baseline 14) it was 3. The “Mood Scores CES-D” value was determined as 22 in assay [2] (patient eight, 75 then 100 mg/day, Month 1, baseline 25); 20 in assay [2] (patient eight, 75 then 100 mg/day, Month 2, baseline 25); 15 in assay [2] (patient eight, 75 then 100 mg/day, Month 3, baseline 25); 13 in assay [2] (patient eight, 75 then 100 mg/day, Month 4, baseline 25). The “weight at the end of 4 months” value is on record as 71.8 kg in assay [3] (patient eight, 75 then 100 mg/day, starting weight 81.8 kg) and 158 pounds in assay [3] (patient eight, 75 then 100 mg/day, starting weight 180 pounds). The “Appetite and Cravings” value in assay [4] (patient eight, 75 then 100 mg/day, Month 1, baseline 11) is given as 9; in assay [4] (patient eight, 75 then 100 mg/day, Month 2, baseline 11) it was 8; in assay [4] (patient eight, 75 then 100 mg/day, Month 3, baseline 11) it was 13; in assay [4] (patient eight, 75 then 100 mg/day, Month 4, baseline 11), 6.

In the case of `CNCCC(Oc1ccc(C(F)(F)F)cc1)c1ccccc1` (centres unmarked) [fluoxetine hydrochloride], the “Emotional Triggers” value in assay [1] (patient four, 20 rising to 80 mg/day, Month 1, baseline 31) is 22; in assay [1] (patient four, 20 rising to 80 mg/day, Month 2, baseline 31), 13; in assay [1] (patient four, 20 rising to 80 mg/day, Month 3, baseline 31), 10; in assay [1] (patient four, 20 rising to 80 mg/day, Month 4, baseline 31), 12. Further, the “Mood Scores CES-D” value amounted to 10 in assay [2] (patient four, 20 rising to 80 mg/day, Month 1, baseline 15); 2 in assay [2] (patient four, 20 rising to 80 mg/day, Month 2, baseline 15); 6 in assay [2] (patient four, 20 rising to 80 mg/day, Month 3, baseline 15); 7 in assay [2] (patient four, 20 rising to 80 mg/day, Month 4, baseline 15). Besides, the “weight at the end of 4 months” value worked out at 78.2 kg in assay [3] (patient four, 20 rising to 80 mg/day, starting weight 83.2 kg) and 172 pounds in assay [3] (patient four, 20 rising to 80 mg/day, starting weight 183 pounds). Besides, the “Appetite and Cravings” value was 6 in assay [4] (patient four, 20 rising to 80 mg/day, Month 1, baseline 17); 9 in assay [4] (patient four, 20 rising to 80 mg/day, Month 2, baseline 17); 3 in assay [4] (patient four, 20 rising to 80 mg/day, Month 3, baseline 17); 4 in assay [4] (patient four, 20 rising to 80 mg/day, Month 4, baseline 17).

In the case of `COc1ccc(C(CN(C)C)C2(O)CCCCC2)cc1` (centres unmarked) [venlafaxine hydrochloride], the “Emotional Triggers” value in assay [1] (patient ten, 75 rising to 150 mg/day, Month 1, baseline 14) is recorded as 9; in assay [1] (patient ten, 75 rising to 150 mg/day, Month 2, baseline 14), 4; in assay [1] (patient ten, 75 rising to 150 mg/day, Month 3, baseline 14) it was 6; in assay [1] (patient ten, 75 rising to 150 mg/day, Month 4, baseline 14), 2. Further, the “Mood Scores CES-D” value in assay [2] (patient ten, 75 rising to 150 mg/day, Month 1, baseline 8) is 4; in assay [2] (patient ten, 75 rising to 150 mg/day, Month 2, baseline 8) it was 6; in assay [2] (patient ten, 75 rising to 150 mg/day, Month 3, baseline 8), 2; in assay [2] (patient ten, 75 rising to 150 mg/day, Month 4, baseline 8), 2. In addition, the “Appetite and Cravings” value was determined as 6 in assay [4] (patient ten, 75 rising to 150 mg/day, Month 1, baseline 10); 7 in assay [4] (patient ten, 75 rising to 150 mg/day, Month 2, baseline 10); 3 in assay [4] (patient ten, 75 rising to 150 mg/day, Month 3, baseline 10); 1 in assay [4] (patient ten, 75 rising to 150 mg/day, Month 4, baseline 10).

`CCN[C@@H](C)Cc1cccc(C(F)(F)F)c1` [dexfenfluramine hydrochloride]: the “Emotional Triggers” value in assay [1] (patient eleven, 30 mg/day, Month 1, baseline 30) came out at 12; in assay [1] (patient eleven, 30 mg/day, Month 2, baseline 30), 13; in assay [1] (patient eleven, 30 mg/day, Month 3, baseline 30), 5. Moreover, the “Mood Scores CES-D” value in assay [2] (patient eleven, 30 mg/day, Month 1, baseline 19) worked out at 5; in assay [2] (patient eleven, 30 mg/day, Month 2, baseline 19) it was 2; in assay [2] (patient eleven, 30 mg/day, Month 3, baseline 19) it was 3. Further, the “Appetite and Cravings” value in assay [4] (patient eleven, 30 mg/day, Month 1, baseline 9) is recorded as 6; in assay [4] (patient eleven, 30 mg/day, Month 2, baseline 9), 8; in assay [4] (patient eleven, 30 mg/day, Month 3, baseline 9), 3; in assay [4] (patient eleven, 30 mg/day, Month 4, baseline 9), 5.

Regarding `CN(C)CCCN1c2ccccc2CCc2ccccc21` [imipramine hydrochloride], the “Emotional Triggers” value in assay [1] (patient five, intramuscular 75 mg/day, Month 1, baseline 22) worked out at 15; in assay [1] (patient five, intramuscular 75 mg/day, Month 2, baseline 22) it was 14; in assay [1] (patient five, intramuscular 75 mg/day, Month 3, baseline 22) it was 6; in assay [1] (patient five, intramuscular 75 mg/day, Month 4, baseline 22), 8. The “Mood Scores CES-D” value in assay [2] (patient five, intramuscular 75 mg/day, Month 1, baseline 36) is 34; in assay [2] (patient five, intramuscular 75 mg/day, Month 2, baseline 36), 26; in assay [2] (patient five, intramuscular 75 mg/day, Month 3, baseline 36), 21; in assay [2] (patient five, intramuscular 75 mg/day, Month 4, baseline 36), 20. Also, the “weight after 4 months” value in assay [3] (patient five, intramuscular 75 mg/day, starting weight 74.1 kg) worked out at 70.4 kg; in assay [3] (patient five, intramuscular 75 mg/day, starting weight 163 pounds) it was 155 pounds. Further, the “Appetite and Cravings” value was determined as 12 in assay [4] (patient five, intramuscular 75 mg/day, Month 1, baseline 15); 7 in assay [4] (patient five, intramuscular 75 mg/day, Month 2, baseline 15); 3 in assay [4] (patient five, intramuscular 75 mg/day, Month 3, baseline 15); 6 in assay [4] (patient five, intramuscular 75 mg/day, Month 4, baseline 15).
